Data as given in ChEMBL document CHEMBL1152477, “Evaluation of substrate and inhibitor properties of a novel MDR modulator H17 towards transmembrane efflux pumps” (Eur J Med Chem, 2009).

Legend:
Rattus norvegicus [1] = organism: Rattus norvegicus; assay: Inhibition of P-glycoprotein in White Wistar rat ileum assessed as permeability at 30 uM after 30 mins by HPLC analysis; format: tissue-based
Rattus norvegicus [2] = organism: Rattus norvegicus; assay: Inhibition of P-glycoprotein in White Wistar rat jejunum assessed as permeability at 30 uM after 30 mins by HPLC analysis; format: tissue-based
Rattus norvegicus [3] = organism: Rattus norvegicus; assay: Inhibition of P-glycoprotein in White Wistar rat colon assessed as permeability at 30 uM after 30 mins by HPLC analysis
[4] = target: T1, Multidrug resistance-associated protein 1 (Rattus norvegicus, UniProt Q8CG09); assay: Inhibition of MRP1/MRP2 in White Wistar rat jejunum assessed as increase in drug uptake at 1 mM after 30 mins by HPLC analysis; format: tissue-based; settings: 0.5 h, 1000 µM
T1 sequence (Q8CG09 whole entry): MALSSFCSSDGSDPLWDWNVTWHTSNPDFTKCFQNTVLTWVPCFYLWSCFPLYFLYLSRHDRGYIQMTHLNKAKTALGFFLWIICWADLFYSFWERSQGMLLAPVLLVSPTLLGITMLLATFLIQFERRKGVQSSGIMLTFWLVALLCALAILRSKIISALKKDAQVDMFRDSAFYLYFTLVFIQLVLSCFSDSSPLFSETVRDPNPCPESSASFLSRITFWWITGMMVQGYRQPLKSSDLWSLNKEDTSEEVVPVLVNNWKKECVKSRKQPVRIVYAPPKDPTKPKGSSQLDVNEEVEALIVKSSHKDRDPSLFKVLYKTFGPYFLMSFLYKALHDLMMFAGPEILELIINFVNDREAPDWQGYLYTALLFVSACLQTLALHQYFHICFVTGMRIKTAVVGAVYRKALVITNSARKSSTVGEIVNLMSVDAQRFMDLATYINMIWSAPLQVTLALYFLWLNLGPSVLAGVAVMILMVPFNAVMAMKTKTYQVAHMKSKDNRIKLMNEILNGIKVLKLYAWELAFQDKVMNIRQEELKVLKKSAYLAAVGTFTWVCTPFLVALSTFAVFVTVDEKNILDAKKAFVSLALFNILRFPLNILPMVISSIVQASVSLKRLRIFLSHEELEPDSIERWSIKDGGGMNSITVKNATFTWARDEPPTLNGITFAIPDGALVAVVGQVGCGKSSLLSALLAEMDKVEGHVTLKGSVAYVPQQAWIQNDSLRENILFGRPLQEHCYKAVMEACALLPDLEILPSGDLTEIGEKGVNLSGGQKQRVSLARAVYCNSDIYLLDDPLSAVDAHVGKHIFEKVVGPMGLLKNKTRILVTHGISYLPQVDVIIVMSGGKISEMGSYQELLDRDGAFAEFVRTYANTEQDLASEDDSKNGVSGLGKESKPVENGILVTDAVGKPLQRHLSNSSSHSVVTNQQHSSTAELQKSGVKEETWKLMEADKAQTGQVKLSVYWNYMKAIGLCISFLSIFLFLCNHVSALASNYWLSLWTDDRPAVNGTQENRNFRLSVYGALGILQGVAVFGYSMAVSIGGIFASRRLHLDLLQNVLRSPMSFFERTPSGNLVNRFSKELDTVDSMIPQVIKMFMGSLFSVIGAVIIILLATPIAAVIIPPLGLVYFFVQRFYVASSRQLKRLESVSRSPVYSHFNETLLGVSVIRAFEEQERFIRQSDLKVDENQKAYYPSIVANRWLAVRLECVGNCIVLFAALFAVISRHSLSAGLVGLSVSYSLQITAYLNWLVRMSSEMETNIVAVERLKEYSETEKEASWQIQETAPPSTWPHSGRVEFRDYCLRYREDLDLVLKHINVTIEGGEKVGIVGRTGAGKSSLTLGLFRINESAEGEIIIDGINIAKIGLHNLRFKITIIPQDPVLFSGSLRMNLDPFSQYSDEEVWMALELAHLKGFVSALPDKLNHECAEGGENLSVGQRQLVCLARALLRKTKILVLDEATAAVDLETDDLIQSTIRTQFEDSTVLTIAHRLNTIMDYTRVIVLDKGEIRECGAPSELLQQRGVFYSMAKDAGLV

[5] = target: T1, Multidrug resistance-associated protein 1; assay: Inhibition of MRP1/MRP2 in White Wistar rat colon assessed as increase in drug uptake at 1 mM after 30 mins by HPLC analysis; settings: 0.5 h, 1000 µM
[6] = target: T1, Multidrug resistance-associated protein 1; assay: Inhibition of MRP1/MRP2 in White Wistar rat ileum assessed as increase in drug uptake at 1 mM after 30 mins by HPLC analysis; format: tissue-based; settings: 0.5 h, 1000 µM

Row | permeability (Rattus norvegicus [3]) [×10⁻⁴ cm/s] | Drug uptake [4] [%] | Drug uptake [5] [%] | Drug uptake [6] [%] | SMILES | permeability (Rattus norvegicus [1]) [×10⁻⁴ cm/s] | permeability (Rattus norvegicus [2]) [×10⁻⁴ cm/s]
1 | 2.05 | – | – | – | OCC12C3C4C1N(Cc1ccccc1)C1(CO)C(CO)(C4c4ccccc4)C(N3Cc3ccccc3)C1(CO)C2c1ccccc1 (stereo unspecified) | 2.4 | 2.36
2 | – | 24 | 13 | 13 | COc1ccc2c(c1)c(CC(=O)O)c(C)n2C(=O)c1ccc(Cl)cc1 [INDOMETHACIN] | – | –
